This is an account of results in ChEMBL document CHEMBL4043203, “Synthesis and biological evaluations of new nitric oxide-anti-inflammatory drug hybrids” (Bioorg Med Chem Lett, 2017).

As usually defined, the IC50 is the concentration that inhibits the measured activity by half. As usually defined, the inhibition in vivo is the change of the read-out against control, counted positive when it falls. One may read the ED50 as the dose at which the effect has come halfway, by size or by number of responders.

The species entered for data set [1] is Rattus norvegicus. Kind of data set: Ulcerogenic activity in Wistar albino rat assessed as loss of mucous in stomach after 48 hrs by hematoxylin and eosin staining based microscopic analysis. Format: toxicity, Wister. The note with it: in vivo.
In data set [2] the target is T1, Prostaglandin G/H synthase 1 (Ovis aries, UniProt P05979).
T1 sequence (P05979 whole entry): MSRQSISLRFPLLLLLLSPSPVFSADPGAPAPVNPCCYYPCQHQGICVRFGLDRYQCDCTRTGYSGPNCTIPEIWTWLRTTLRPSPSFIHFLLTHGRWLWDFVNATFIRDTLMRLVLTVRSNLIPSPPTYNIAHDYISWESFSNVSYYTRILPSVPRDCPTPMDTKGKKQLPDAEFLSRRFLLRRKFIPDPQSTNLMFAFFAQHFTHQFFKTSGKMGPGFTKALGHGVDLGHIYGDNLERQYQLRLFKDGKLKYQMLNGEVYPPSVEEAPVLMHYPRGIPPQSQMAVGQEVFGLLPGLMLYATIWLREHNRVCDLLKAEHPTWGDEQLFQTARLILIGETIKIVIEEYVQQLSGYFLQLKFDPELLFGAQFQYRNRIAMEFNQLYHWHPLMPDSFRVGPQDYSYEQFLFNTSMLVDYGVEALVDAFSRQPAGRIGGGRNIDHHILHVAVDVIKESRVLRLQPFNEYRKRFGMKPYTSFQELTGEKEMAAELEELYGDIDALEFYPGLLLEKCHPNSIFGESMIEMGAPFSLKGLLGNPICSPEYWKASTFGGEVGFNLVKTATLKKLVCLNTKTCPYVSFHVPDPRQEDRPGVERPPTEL
Kind of data set: Inhibition of ovine COX1 using arachidonic acid as substrate by colorimetric enzyme immune assay.

A short description of data set [3]: Selectivity index, ratio of IC50 for ovine COX1 to IC50 for recombinant human COX2.
The species entered for data set [4] is Rattus norvegicus. As to the kind of experiment: Ulcerogenic activity in Wistar albino rat assessed as minimum vasocapillary dilation in stomach after 48 hrs by hematoxylin and eosin staining based microscopic analysis. The note with it: in vivo. Format: toxicity, Wister.
Data set [5] relates to Rattus norvegicus. Kind of data set: Antiinflammatory activity in Wistar albino rat assessed as serum nitric oxide level at 50 mg/kg, po treated for 3 successive days measured at 2 hrs post last dose by Griess reagent based colorimetric assay (reference value: 147.90 +/- 31.76 micromol/L). It counts as functional, Wister. On the technique in general: The Griess reaction detects nitrite, a stable product of nitric oxide.

In data set [6] the target is T2, Prostaglandin G/H synthase 2 (Homo sapiens, UniProt P35354).
T2 sequence (P35354 whole entry): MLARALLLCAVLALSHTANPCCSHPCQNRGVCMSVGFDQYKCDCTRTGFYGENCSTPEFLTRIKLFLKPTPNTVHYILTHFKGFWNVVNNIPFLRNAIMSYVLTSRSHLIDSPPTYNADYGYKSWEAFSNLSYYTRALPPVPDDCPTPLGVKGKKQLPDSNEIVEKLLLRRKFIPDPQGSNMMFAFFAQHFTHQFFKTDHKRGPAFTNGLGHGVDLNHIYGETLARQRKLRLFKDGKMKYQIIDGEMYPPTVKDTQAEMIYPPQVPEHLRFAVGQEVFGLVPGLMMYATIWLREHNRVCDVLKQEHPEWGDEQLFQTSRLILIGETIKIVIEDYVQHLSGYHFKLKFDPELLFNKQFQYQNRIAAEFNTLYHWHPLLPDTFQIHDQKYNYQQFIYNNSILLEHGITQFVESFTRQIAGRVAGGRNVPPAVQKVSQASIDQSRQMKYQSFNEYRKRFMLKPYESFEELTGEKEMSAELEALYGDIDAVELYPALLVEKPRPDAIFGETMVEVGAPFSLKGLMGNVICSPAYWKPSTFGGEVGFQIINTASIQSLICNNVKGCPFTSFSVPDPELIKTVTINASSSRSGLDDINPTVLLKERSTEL
Kind of data set: Inhibition of recombinant human COX2 using arachidonic acid as substrate by colorimetric enzyme immune assay.

The subject of data set [7] is Rattus norvegicus. As to the kind of experiment: Antiinflammatory activity in Wistar albino rat assessed as inhibition of carrageenan-induced left hind paw edema at 50 mg/kg, po pretreated for 1 hr followed by carrageenan addition measured after 2 hrs relative to control. It counts as functional. Particulars: Wister. (In general: The carrageenan paw model is a standard test of acute inflammation.)

The subject of data set [8] is Rattus norvegicus. As to the kind of experiment: Ulcerogenic activity in Wistar albino rat assessed as relative ulcerogenicity at 50 mg/kg, po treated for 3 successive days measured at 2 hrs post last dose relative to celecoxib. Format: toxicity, organism-based, Wister. The note with it: in vivo.
Data set [9] concerns Rattus norvegicus. As to the kind of experiment: Ulcerogenic activity in Wistar albino rat assessed as ulcer index at 50 mg/kg, po treated for 3 successive days measured at 2 hrs post last dose. Particulars: in vivo. It counts as toxicity, organism-based, Wister.
Data set [10] concerns Rattus norvegicus. Kind of data set: Antiinflammatory activity in po dosed Wistar albino rat assessed as inhibition of carrageenan-induced left hind paw edema pretreated for 1 hr followed by carrageenan addition measured after 2 hrs. Format: functional. The note with it: Wister.
The species entered for data set [11] is Rattus norvegicus. As to the kind of experiment: Ulcerogenic activity in Wistar albino rat assessed as lesion in stomach after 48 hrs by hematoxylin and eosin staining based microscopic analysis. Format: toxicity, Wister. Particulars: in vivo.
Data set [12] is filed under the species Rattus norvegicus. As to the kind of experiment: Ulcerogenic activity in Wistar albino rat assessed as abdominal perforation in stomach after 48 hrs by hematoxylin and eosin staining based microscopic analysis. It counts as toxicity, Wister. The note with it: in vivo.

`Cc1c(C(=O)/C(Cl)=N/O)cnn1-c1ccccc1`: the Activity entry is “Non-Toxic” in data set [1], “Non-Toxic” in data set [4] and 315.5 µmol/L in data set [5]. Moreover, the results for the half-maximal inhibitory concentration (IC50) in data set [2] and in [6] were 9.8 µM and 2.33 µM, respectively. In data set [3], the Ratio IC50 amounted to 4.2. The inhibition in vivo at 50 mg/kg in data set [7] was 50%. Further, the “fold change (FC)” value in [8] is listed as 15.15. Also, the UI in data set [9] is recorded as 5. The ED50 in data set [10] turned out to be 50 mg/kg.

`Cc1c(-c2nc3ccccc3nc2N=O)cnn1-c1ccccc1`: the IC50 in [2] came out at 9.2 µM; in data set [6], 6.6 µM. In addition, the Ratio IC50 in data set [3] was 1.39. Also, the Activity in [5] was found to be 140.1 µmol/L. The inhibition in vivo at 50 mg/kg in [7] is 59%. Further, the “fold change (FC)” value in data set [8] came to 9.09. In addition, in data set [9], the UI is recorded as 3. The ED50 in [10] was 40 mg/kg.

With `Cc1c(-c2nnc(-c3cnn(-c4ccccc4)c3C)c3nocc23)cnn1-c1ccccc1`, the IC50 stood at 10.1 µM in data set [2] and 6.88 µM in data set [6]. For the same molecule, the Ratio IC50 in [3] came to 1.46. In addition, the Activity result in data set [4] was “Non-Toxic”; in data set [5], 318.8 µmol/L; in [11], “Non-Toxic”. Also, the “fold change (FC)” value in [8] worked out at 4.03. Besides, the UI in data set [9] is on record as 1.33.

Consider `Cc1c(-c2nc3ccccn3c2N=O)cnn1-c1ccccc1`, for which the IC50 in data set [2] worked out at 9.2 µM; in data set [6], 1.75 µM. The Ratio IC50 in data set [3] turned out to be 5.25. Also, the Activity in data set [5] was determined as 402.6 µmol/L. The inhibition in vivo at 50 mg/kg in data set [7] was found to be 65%. For the same molecule, the “fold change (FC)” value in data set [8] was found to be 6.06. Also, the UI in data set [9] turned out to be 2. Besides, the ED50 in data set [10] was found to be 35 mg/kg.

Take `Cc1ccc(-c2cc(C(F)(F)F)nn2-c2ccc(S(N)(=O)=O)cc2)cc1` [CELECOXIB]: the Activity entry in data set [4] and in [11] was “Non-Toxic” throughout. Also, the inhibition in vivo at 50 mg/kg in data set [7] came to 65%. Also, in data set [9], the UI was determined as 0.33. Further, the ED50 in [10] turned out to be 35 mg/kg.

On to `COc1ccc2c(c1)c(CC(=O)O)c(C)n2C(=O)c1ccc(Cl)cc1` [INDOMETHACIN], for which the Activity entry in data set [1] and in data set [12] was “Toxic” throughout.

For `Cc1ccc(C(=O)c2conc2C(=O)c2cnn(-c3ccccc3)c2C)cc1`, the figures for the IC50 in data set [2] and in data set [6] were 4.52 µM and 1.12 µM, respectively. In data set [3], the Ratio IC50 came out at 4.03. Further, the Activity in data set [5] amounted to 346.5 µmol/L. Moreover, the inhibition in vivo at 50 mg/kg in data set [7] worked out at 45%. Moreover, in [8], the “fold change (FC)” value came out at 4.03. Moreover, the UI in data set [9] was determined as 1.33. In addition, the median effective dose (ED50) in data set [10] turned out to be 56 mg/kg.

Regarding `Cc1ccc(-c2nnc(-c3cnn(-c4ccccc4)c3C)c3nocc23)cc1`, the IC50 in data set [2] is 10.2 µM; in data set [6], 1.28 µM. Besides, the Ratio IC50 in [3] worked out at 7.94. In data set [5], the Activity was 273.1 µmol/L. In data set [7], the inhibition in vivo at 50 mg/kg was 54%. Besides, the “fold change (FC)” value in [8] turned out to be 1. Besides, the UI in data set [9] is reported as 0.33. Also, the ED50 in data set [10] was 46 mg/kg.

Regarding `Cc1c(C2=C(N=O)Nc3ccccc3N2)cnn1-c1ccccc1`, the IC50 in data set [2] is 9.22 µM; in [6], 1.61 µM. Also, the Ratio IC50 in data set [3] was determined as 5.77. Further, the Activity in [5] stood at 370.1 µmol/L. For the same molecule, the inhibition in vivo at 50 mg/kg in data set [7] was found to be 57%. In addition, the “fold change (FC)” value in data set [8] stood at 7.06. Besides, the UI in data set [9] is listed as 2.33. In addition, the ED50 in [10] was found to be 40 mg/kg.

For `Cc1c(-c2c(N=O)nc3ncccn23)cnn1-c1ccccc1`, the IC50 in data set [2] worked out at 6.8 µM; in data set [6], 1.55 µM. The Ratio IC50 in [3] was found to be 4.38. Also, the Activity entry was “Non-Toxic” in data set [4], 386.3 µmol/L in data set [5] and “Non-Toxic” in [11]. Besides, in data set [7], the inhibition in vivo at 50 mg/kg came to 62%. Further, in [8], the “fold change (FC)” value was found to be 1. Further, in [9], the UI is 0.33. Besides, the ED50 in data set [10] came to 38 mg/kg.

For `Cc1c(C(=O)c2conc2C(=O)c2cnn(-c3ccccc3)c2C)cnn1-c1ccccc1`, the IC50 was 9.11 µM in data set [2] and 4.5 µM in [6]. The Ratio IC50 in data set [3] was determined as 2.02. The Activity in [5] turned out to be 286.2 µmol/L. Also, the “fold change (FC)” value in [8] was 1. The UI in [9] turned out to be 0.33.

`Cc1c(C2=C(N=O)Oc3cccnc3N2)cnn1-c1ccccc1`: the IC50 in [2] came out at 5.6 µM; in data set [6] it was 1.22 µM. The Ratio IC50 in data set [3] came to 4.59. The Activity in data set [5] was 415.3 µmol/L. The inhibition in vivo at 50 mg/kg in [7] came to 64%. For the same molecule, the “fold change (FC)” value in [8] was determined as 1. In addition, the UI in [9] is recorded as 0.33. Besides, the ED50 in data set [10] is 35 mg/kg.

For the molecule `Cc1c(C2=C(N=O)Sc3ccccc3N2)cnn1-c1ccccc1`, the figures for the IC50 in data set [2] and in data set [6] were 7.72 µM and 1.83 µM, respectively. Further, in data set [3], the Ratio IC50 is 4.21. In addition, in data set [5], the Activity worked out at 348.3 µmol/L. For the same molecule, the inhibition in vivo at 50 mg/kg in data set [7] is 56%. Moreover, the “fold change (FC)” value in data set [8] amounted to 1. Also, the UI in [9] was found to be 0.33. The ED50 in data set [10] turned out to be 45 mg/kg.

Turning to `Cc1c(C(=O)c2nocc2C(=O)c2ccccc2)cnn1-c1ccccc1`, the IC50 in [2] came out at 11.1 µM; in data set [6], 1.49 µM. The Ratio IC50 in data set [3] is 7.44. In addition, the Activity in data set [5] worked out at 372 µmol/L. Besides, the inhibition in vivo at 50 mg/kg in data set [7] stood at 41%. Also, the “fold change (FC)” value in [8] turned out to be 1. In data set [9], the UI amounted to 0.33. For the same molecule, the ED50 in data set [10] was found to be 61 mg/kg.

Turning to `Cc1c(C2=C(N=O)Oc3ccccc3N2)cnn1-c1ccccc1`, the IC50 stood at 8.6 µM in [2] and 4.2 µM in data set [6]. The Ratio IC50 in data set [3] was 2.04. Also, in [5], the Activity amounted to 335.3 µmol/L. Further, the inhibition in vivo at 50 mg/kg in data set [7] is 56%. The “fold change (FC)” value in data set [8] was 6.06. The UI in data set [9] was 2. For the same molecule, in data set [10], the ED50 was determined as 45 mg/kg.

As for `Cc1c(-c2nnc(-c3ccccc3)c3conc23)cnn1-c1ccccc1`, the IC50 was 5.88 µM in data set [2] and 0.78 µM in data set [6]. Moreover, in data set [3], the Ratio IC50 is 7.84. The Activity in [5] turned out to be 314.4 µmol/L. The inhibition in vivo at 50 mg/kg in data set [7] amounted to 50%. Also, the “fold change (FC)” value in [8] worked out at 5.06. Besides, the UI in data set [9] turned out to be 1.76. In addition, in [10], the ED50 amounted to 50 mg/kg.
